Measurements published in PubChem BioAssay AID256 (DTP/NCI, 2004).
Values joined by “and” are separate entries in the source; they are usually repeats but may differ in a detail not shown here. Equal values may be shown once. Inconclusive results and toxic doses are left out. The calls were made as follows: active = survival T/C of 150% or more; inactive = T/C below 125% in these data.

Test system: CD2F1 mice, L1210 leukemia ip, survival T/C
Experiment: NCI In Vivo Anticancer Drug Screen. Data for tumor model L1210 Leukemia (intraperitoneal) in CD2F1 (CDF1) mice
Conditions: endpoint: mean survival time, higher = longer survival
Summary of the method: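 Read-out first: treated-group measurement over vehicle-control measurement, expressed as a ratio. Animals bore a transplanted tumor line and were dosed with compound or vehicle.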

[1] = dose: 100.0 mg/kg/injection, schedule: Q04DX002 (ip), vehicle: saline with Tween-80
[2] = dose: 200.0 mg/kg/injection, schedule: Q04DX002 (ip), vehicle: saline with Tween-80
[3] = dose: 100.0 mg/kg/injection, schedule: Q04DX003 (ip), vehicle: saline
[4] = dose: 200.0 mg/kg/injection, schedule: Q04DX003 (ip), vehicle: saline
[5] = dose: 400.0 mg/kg/injection, schedule: Q04DX003 (ip), vehicle: saline
[6] = dose: 400.0 mg/kg/injection, schedule: Q04DX002 (ip), vehicle: saline with Tween-80
[7] = dose: 100.0 mg/kg/injection, schedule: Q04DX003 (ip), vehicle: saline with Tween-80
[8] = dose: 200.0 mg/kg/injection, schedule: Q04DX003 (ip), vehicle: saline with Tween-80
[9] = dose: 400.0 mg/kg/injection, schedule: Q04DX003 (ip), vehicle: saline with Tween-80
[10] = dose: 25.0 mg/kg/injection, schedule: Q04DX003 (ip), vehicle: saline
[11] = dose: 50.0 mg/kg/injection, schedule: Q04DX003 (ip), vehicle: saline
[12] = dose: 100.0 mg/kg/injection, schedule: Q01DX009 (ip), vehicle: saline with Tween-80

Measured: T/C

CCC12C=CC(OC)(CC1)C(C#N)C2 (stereo not given)
inactive: dose: 50.0 mg/kg/injection, schedule: Q04DX002 (ip), vehicle: saline with Tween-80 103 % of control | [1] 100 % of control | [2] 91 % of control

CS(=O)(=O)c1nccc2ccccc12
inactive: [3] 90 % of control | [4] 88 % of control | [5] 95 % of control

CNC(=S)Nc1ccc(OC)c2ccccc12
inactive: dose: 100.0 mg/kg/injection, schedule: Q04DX003 (ip), vehicle: Klucel (hydroxypropylcellulose) (HPC) 86 % of control | dose: 200.0 mg/kg/injection, schedule: Q04DX003 (ip), vehicle: Klucel (hydroxypropylcellulose) (HPC) 88 % of control | dose: 400.0 mg/kg/injection, schedule: Q04DX003 (ip), vehicle: Klucel (hydroxypropylcellulose) (HPC) 89 % of control

COc1ccc(NC(=O)Nc2ccccc2OC)c(OC)c1
inactive: [1] 94 % of control | [2] 94 % of control | [6] 87 % of control

C[N+](C)(C)Cc1ccc([N+](=O)[O-])cc1
inactive: dose: 5.0 mg/kg/injection, schedule: Q01DX001 (ip), vehicle: saline 98 % of control | dose: 10.0 mg/kg/injection, schedule: Q01DX001 (ip), vehicle: saline 106 % of control | dose: 20.0 mg/kg/injection, schedule: Q01DX001 (ip), vehicle: saline 101 % of control | dose: 40.0 mg/kg/injection, schedule: Q01DX001 (ip), vehicle: saline 98 % of control | dose: 80.0 mg/kg/injection, schedule: Q01DX001 (ip), vehicle: saline 98 % of control

CN(C)C(=O)Sc1c(S(=O)(=O)F)ccc(Cl)c1Cl
inactive: [1] 96 % of control | [2] 96 % of control | [6] 100 % of control

CC(=O)OC1(C)CC(C)C(=O)C(C(O)CC2CC(=O)NC(=O)C2)C1 (stereo not given)
inactive: dose: 0.03 mg/kg/injection, schedule: Q01DX009 (ip), vehicle: saline 103 % of control | dose: 0.04 mg/kg/injection, schedule: Q01DX009 (ip), vehicle: saline 94 % of control | dose: 0.06 mg/kg/injection, schedule: Q01DX009 (ip), vehicle: saline 105 % of control and 107 % of control | dose: 0.13 mg/kg/injection, schedule: Q01DX009 (ip), vehicle: saline 114 % of control

COc1ccc(Cc2nccc3cc(OC)c(OC)cc23)cc1OC
inactive: dose: 9.4 mg/kg/injection, schedule: Q04DX003 (ip), vehicle: water 115 % of control | dose: 18.7 mg/kg/injection, schedule: Q04DX003 (ip), vehicle: water 93 % of control | dose: 37.5 mg/kg/injection, schedule: Q04DX003 (ip), vehicle: water 96 % of control | dose: 50.0 mg/kg/injection, schedule: Q01DX009 (ip), vehicle: water 96 % of control

C[n+]1c(/C=C\C=C\N2CCCCC2)sc2ccccc21
inactive: dose: 0.06 mg/kg/injection, schedule: Q01DX009 (ip), vehicle: Klucel (hydroxypropylcellulose) (HPC) 104 % of control | dose: 0.12 mg/kg/injection, schedule: Q01DX009 (ip), vehicle: Klucel (hydroxypropylcellulose) (HPC) 104 % of control | dose: 0.25 mg/kg/injection, schedule: Q01DX009 (ip), vehicle: Klucel (hydroxypropylcellulose) (HPC) 107 % of control | dose: 0.31 mg/kg/injection, schedule: Q01DX009 (ip), vehicle: Klucel (hydroxypropylcellulose) (HPC) 113 % of control | dose: 0.5 mg/kg/injection, schedule: Q01DX009 (ip), vehicle: Klucel (hydroxypropylcellulose) (HPC) 111 % of control | dose: 0.63 mg/kg/injection, schedule: Q01DX009 (ip), vehicle: Klucel (hydroxypropylcellulose) (HPC) 97 % of control | dose: 1.0 mg/kg/injection, schedule: Q01DX009 (ip), vehicle: Klucel (hydroxypropylcellulose) (HPC) 107 % of control | dose: 1.25 mg/kg/injection, schedule: Q01DX009 (ip), vehicle: Klucel (hydroxypropylcellulose) (HPC) 100 % of control | dose: 2.0 mg/kg/injection, schedule: Q01DX009 (ip), vehicle: Klucel (hydroxypropylcellulose) (HPC) 118 % of control | dose: 62.0 micrograms/kg/injection, schedule: Q01DX009 (ip), vehicle: Klucel (hydroxypropylcellulose) (HPC) 104 % of control | dose: 125.0 micrograms/kg/injection, schedule: Q01DX009 (ip), vehicle: Klucel (hydroxypropylcellulose) (HPC) 102 % of control | dose: 250.0 micrograms/kg/injection, schedule: Q01DX009 (ip), vehicle: Klucel (hydroxypropylcellulose) (HPC) 101 % of control | dose: 500.0 micrograms/kg/injection, schedule: Q01DX009 (ip), vehicle: Klucel (hydroxypropylcellulose) (HPC) 101 % of control | dose: 1000.0 micrograms/kg/injection, schedule: Q01DX009 (ip), vehicle: Klucel (hydroxypropylcellulose) (HPC) 113 % of control | dose: 2000.0 micrograms/kg/injection, schedule: Q01DX009 (ip), vehicle: Klucel (hydroxypropylcellulose) (HPC) 108 % of control

c1ccc2c(c1)C1c3ccccc3C2c2ccccc21
inactive: [7] 95 % of control | [8] 100 % of control | [9] 94 % of control

NC1=NCNC(=O)N1
inactive: dose: 6.25 mg/kg/injection, schedule: Q04DX003 (ip), vehicle: saline 102 % of control | dose: 12.5 mg/kg/injection, schedule: Q04DX003 (ip), vehicle: saline 91 % of control | [10] 93 % of control | [11] 98 % of control | [3] 96 % of control | [4] 96 % of control | [5] 98 % of control

CCOCCSc1ccccc1
inactive: dose: 100.0 mg/kg/injection, schedule: Q01DX001 (ip), vehicle: saline 104 % of control | dose: 200.0 mg/kg/injection, schedule: Q01DX001 (ip), vehicle: saline 102 % of control | dose: 400.0 mg/kg/injection, schedule: Q01DX001 (ip), vehicle: saline 102 % of control

CN1CCC(c2ccccc2)c2ccccc21 (stereo not given)
inactive: dose: 50.0 mg/kg/injection, schedule: Q04DX003 (ip), vehicle: other 97 % of control | dose: 100.0 mg/kg/injection, schedule: Q04DX003 (ip), vehicle: other 100 % of control | dose: 200.0 mg/kg/injection, schedule: Q04DX003 (ip), vehicle: other 100 % of control | dose: 400.0 mg/kg/injection, schedule: Q04DX003 (ip), vehicle: other 100 % of control

COC(=O)C1C2C(=O)NC(=O)C2C(c2ccc(-c3ccccc3)cc2)N1C1CCCCC1 (stereo not given)
inactive: [7] 105 % of control | [8] 100 % of control | [9] 103 % of control

O=[N+]([O-])c1ccc(C(F)(F)F)cc1
inactive: [7] 104 % of control | [8] 102 % of control

Cc1cccc[n+]1CCCS(=O)(=O)[O-]
inactive: [3] 104 % of control | [4] 102 % of control | [5] 101 % of control

O=C(O)CNCC(=O)O
inactive: [12] 93 % of control | dose: 200.0 mg/kg/injection, schedule: Q01DX009 (ip), vehicle: saline with Tween-80 97 % of control | dose: 400.0 mg/kg/injection, schedule: Q01DX009 (ip), vehicle: saline with Tween-80 98 % of control

CCCC(C)c1ccccc1O (stereo not given)
inactive: dose: 25.0 mg/kg/injection, schedule: Q01DX009 (ip), vehicle: saline with Tween-80 102 % of control | [10] 97 % of control | dose: 50.0 mg/kg/injection, schedule: Q01DX009 (ip), vehicle: saline with Tween-80 98 % of control | [11] 105 % of control | [12] 92 % of control | [3] 94 % of control

NC(=O)COS(=O)(=O)O
inactive: dose: 100.0 mg/kg/injection, schedule: Q01DX009 (ip), vehicle: saline 104 % of control | dose: 200.0 mg/kg/injection, schedule: Q01DX009 (ip), vehicle: saline 104 % of control | dose: 400.0 mg/kg/injection, schedule: Q01DX009 (ip), vehicle: saline 108 % of control
